Source: PubChem BioAssay AID623871 (Sanford-Burnham Center for Chemical Genomics, 2012)
Activity calls are given as the source filed them.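 How the source made its calls: active means IC50 at or below 10 µM; inactive means the rest.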

Test system: H9c2 cardiomyoblasts, 2-deoxyglucose injury, ATP luminescence, 2 h
Experiment: protection of H9c2 cells from ATP loss, SAR follow-up, 2-deoxyglucose, ATP luminescence (AID 623871)

Structure (SMILES) | IC50
CCCn1c(SC(C(=O)Nc2cccc(OC)c2)c2ccccc2)nc2ccccc2c1=O (centres undefined) | > 79 µM (inactive)
Cc1ccc2cc(CN(C)S(=O)(=O)c3ccc(F)cc3)c(=O)[nH]c2c1 | > 79 µM (inactive)
COc1ccc(-n2cc(-c3ccccc3)c3c(NCc4ccccc4)ncnc32)cc1 | 13.6 µM (inactive)
COCCNC(=O)C(c1ccc(O)cc1)N(C(=O)c1snc(C(N)=O)c1N)c1ccccc1F (centres undefined) | > 79 µM (inactive)
COc1cccc(CN(C)C(=O)c2cc(-c3ccccc3)nc3ccc(C)cc23)c1OC | > 79 µM (inactive)
COc1ccc(NC(=O)CN(C)C(=O)c2cc(-c3cccs3)nn2-c2ccccc2)cc1 | 38.6 µM (inactive)
COc1ccc(-c2cc(C(=O)N(C)C)c3ccccc3n2)cc1OC | > 79 µM (inactive)
COc1ccc2cc(C(=O)N3CCN(S(=O)(=O)c4cc(C)ccc4C)CC3)c(C)nc2c1 | > 79 µM (inactive)
Cc1ccc2cc(CN(Cc3cccnc3)S(=O)(=O)c3ccc(F)cc3)c(=O)[nH]c2c1 | > 79 µM (inactive)
COc1ccc(-n2cc(-c3ccccc3)c3c(N4CCCCC4)ncnc32)cc1 | 10.6 µM (inactive)
CCCN(CC(=O)Nc1ccccc1OC)C(=O)c1cc(-c2cccs2)nn1-c1ccccc1 | > 79 µM (inactive)
NC(=O)c1nsc(C(=O)N(c2cccc(F)c2)C(C(=O)NC2CCCC2)c2ccc(O)cc2)c1N (centres undefined) | > 79 µM (inactive)
COc1ccc(-c2cc(C(=O)N(C)Cc3ccc(OC)c(OC)c3OC)c3ccccc3n2)cc1OC | 7.31 µM
COc1ccc2c(c1OC)C(=O)N1c3ccccc3C(=O)N(c3ccc(F)cc3)C21 (centres undefined) | 39.4 µM (inactive)
COc1ccc2cc(C(=O)N3CCN(S(=O)(=O)c4ccc(C)cc4C)CC3)c(C)nc2c1 | > 79 µM (inactive)
Cc1ccccc1N(C(=O)c1snc(C(N)=O)c1N)C(C(=O)NCc1ccc(F)cc1)c1ccc(O)cc1 (centres undefined) | > 79 µM (inactive)
Cc1ccc(C)c(S(=O)(=O)N2CCN(C(=O)c3cc4cc(C)ccc4nc3C)CC2)c1 | 46.2 µM (inactive)
CCN(CC)S(=O)(=O)c1cc(C(=O)N2CCN(Cc3cccc4cccnc34)CC2)ccc1C | > 79 µM (inactive)
Cc1ccc(S(=O)(=O)N(Cc2cccnc2)Cc2cc3ccccc3[nH]c2=O)cc1 | > 79 µM (inactive)
Cc1ccc(-c2[nH]c3ccccc3c2C(=O)C(=O)N(C)C)cc1 | > 79 µM (inactive)
COc1ccc(-c2cc(C(=O)NCc3ccccc3)c3ccccc3n2)cc1OC | > 79 µM (inactive)
O=c1[nH]c2ccccc2cc1CN(Cc1ccco1)S(=O)(=O)c1ccc(F)cc1 | > 79 µM (inactive)

Structure (SMILES) | IC50
CC(C)CCNC(=O)C(c1ccc(O)cc1)N(C(=O)c1snc(C(N)=O)c1N)c1ccccc1F (centres undefined) | > 79 µM (inactive)
O=C(C(=O)N1CCCCC1)c1c(-c2ccccc2)[nH]c2ccccc12 | > 79 µM (inactive)
COc1ccc2c(c1OC)C(=O)N1c3ccccc3C(=O)N(c3ccccc3C)C21 (centres undefined) | 36.1 µM (inactive)
O=C1c2ccccc2N2C(=O)c3ccccc3[C@H]2N1c1ccccc1 | 34.3 µM (inactive)
COc1cccc(NC(=O)C(Sc2nc3ccccc3c(=O)n2CC(C)C)c2ccccc2)c1 (centres undefined) | 19.5 µM (inactive)
Cc1ccc(NC(=O)CN(C)C(=O)c2cc(-c3cccs3)nn2-c2ccccc2)cc1 | 27.2 µM (inactive)
COc1ccccc1N1C(=O)c2ccccc2N2C(=O)c3c(ccc(OC)c3OC)C12 (centres undefined) | 42.5 µM (inactive)
COc1ccc(N2C(=O)c3ccccc3N3C(=O)c4c(ccc(OC)c4OC)C23)cc1 (centres undefined) | 29.3 µM (inactive)
COc1ccc2c(c1OC)C(=O)N1c3ccccc3C(=O)N(c3cccc(Br)c3)C21 (centres undefined) | 10.6 µM (inactive)
COc1ccc(S(=O)(=O)N(Cc2cccnc2)Cc2cc3ccccc3[nH]c2=O)cc1 | 53.9 µM (inactive)
COc1cccc(CN(C)C(=O)c2cc(-c3ccc(OC)c(OC)c3)nc3ccccc23)c1 | 15.1 µM (inactive)
COCCn1c(SC(C(=O)Nc2cc(C)ccc2C)c2ccccc2)nc2ccccc2c1=O (centres undefined) | 4.01 µM (inactive)
CCN(CC(=O)Nc1ccc(OC)cc1)C(=O)c1cc(-c2cccs2)nn1-c1ccccc1 | 6.24 µM
COc1cc(-c2cc(C(=O)Nc3cccc(C(C)=O)c3)c3ccccc3n2)cc(OC)c1OC | 10.7 µM (inactive)
Cc1ccc(S(=O)(=O)N2CCN(C(=O)c3cc(=O)[nH]c4ccccc34)CC2)cc1C | 33.4 µM (inactive)
COc1ccc(-n2cc(-c3ccccc3)c3c(N4CCCC4)ncnc32)cc1 | > 79 µM (inactive)
CCN(CC)C(=O)C(=O)c1c(-c2ccccc2)[nH]c2ccccc12 | > 79 µM (inactive)
COc1ccc2c(=O)c(C(=O)N3CCN(S(=O)(=O)c4c(C)cc(C)cc4C)CC3)c[nH]c2c1 | > 79 µM (inactive)
NC(=O)c1nsc(C(=O)N(Cc2ccccc2)C(C(=O)NCc2ccc(F)cc2)c2ccc(O)cc2)c1N (centres undefined) | > 79 µM (inactive)
COc1cccc(NC(=O)CN(C)C(=O)c2cc(-c3cccs3)nn2-c2ccccc2)c1 | > 79 µM (inactive)
O=C(C(=O)N1CCCC1)c1c(-c2ccccc2)[nH]c2ccccc12 | > 79 µM (inactive)
COc1ccc(-c2cc(C(=O)NCc3ccco3)c3ccccc3n2)cc1OC | 39.2 µM (inactive)
